{"source": "ChEMBL document CHEMBL5532677", "about": "“From Hit to Lead: Structure-Based Optimization of Novel Selective Inhibitors of Receptor-Interacting Protein Kinase 1 (RIPK1) for the Treatment of Inflammatory Diseases” (J Med Chem, 2024)", "type_in_all_cases": "functional, organism-based", "conditions_in_all_cases": "route top, time 7.0 day", "key": {"Mus musculus [1]": {"tested_on": "Mus musculus", "assay": "Anti-inflammatory activity in BALB/c mouse model of IMQ-induced psoriasis assessed as reduction in PASI score at 100 mg administered topically as 0.005% ointment measured daily for 7 days by H and E staining based analysis"}, "Mus musculus [2]": {"tested_on": "Mus musculus", "assay": "Anti-inflammatory activity in BALB/c mouse model of IMQ-induced psoriasis assessed as improvement in erythema at 100 mg administered topically as 0.005% ointment measured daily for 7 days by H and E staining based analysis"}, "Mus musculus [3]": {"tested_on": "Mus musculus", "assay": "Anti-inflammatory activity in BALB/c mouse model of IMQ-induced psoriasis assessed as improvement in skin thickening at 100 mg administered topically as 0.005% ointment measured daily for 7 days by H and E staining based analysis"}}, "note": "Active and inactive are the calls of the source. No cut-off for these calls is given here.", "data": [{"smiles": "C=C1/C(=C\\C=C2/CCC[C@]3(C)[C@@H]([C@H](C)/C=C/[C@@H](O)C4CC4)CC[C@@H]23)C[C@@H](O)C[C@@H]1O", "values": [{"measurement": "Activity", "setting": "Mus musculus [1]", "value": "Active"}, {"measurement": "Activity", "setting": "Mus musculus [2]", "value": "inactive"}, {"measurement": "Activity", "setting": "Mus musculus [3]", "value": "inactive"}]}]}
